From ChEMBL document CHEMBL4627257, “Targeting the DNA damage response (DDR) by natural compounds” (Bioorg Med Chem, 2020)
Active and inactive are the calls of the source. The rule behind the calls is not given here.

Experiments:
SU.86.86 [1] = assay: Induction of DNA damage in human SU8686 cells assessed as increase in gammaH2AX phosphorylation at […] at cytotoxic IC50 in presence of 0.3 uM doxorubicin by fluorometry method; assay type: functional
SU.86.86 [2] = assay: Induction of DNA damage in human SU8686 cells assessed as increase in gammaH2AX phosphorylation at […] at cytotoxic IC50 in presence of 5 uM cisplatin by fluorometry method; assay type: functional
SU.86.86 [3] = assay: Induction of DNA damage in human SU8686 cells assessed as increase in gammaH2AX phosphorylation at […] at cytotoxic IC50 incubated for 24 hrs by fluorometry method; assay type: functional
SU.86.86 [4] = assay: Induction of DNA damage in human SU8686 cells assessed as tail DNA formation at IC50 by alkaline Comet assay; assay type: functional, cell-based
SU.86.86 [5] = assay: Induction of DNA damage in human SU8686 cells assessed as increase in gammaH2AX nuclear foci under basal condition at IC50 by fluorometry method; assay type: functional, cell-based

Structure (SMILES)	Activity (SU.86.86 [1]) [%]	also measured
COC1=C(Br)[C@@H](O)[C@]2(C=C1Br)CC(C(=O)NC[C@@H](O)c1cc(Br)c(OC[C@@H](O)CNC(=O)C3=NO[C@]4(C=C(Br)C(OC)=C(Br)[C@@H]4O)C3)c(Br)c1)=NO2	>20	
COc1cc(O)c2c(c1)C(=O)C1=C(C2=O)[C@H](O)[C@@H](O)[C@@](C)(O)[C@@H]1O [ALTERSOLANOL A]	>20	Activity (SU.86.86 [2]): >20%
O=C1c2cccc(O)c2C(=O)c2c(O)cc(CO)cc21 [ALOE-EMODIN]	>20	
COC(=O)/C=C/Oc1ccc(OC)cc1	>20	
CC[C@H](C)[C@H](NC(=O)[C@H](Cc1ccccc1)NC(=O)[C@H](CC(C)C)NC(=O)[C@@H]1CCCN1C(=O)/C1=C/N[C@@H](C(C)C)C(=O)N2CCC[C@H]2C(=O)N[C@@H](C(C)C)C(=O)N[C@@H](Cc2ccccc2)C(=O)N2CCC[C@H]2C(=O)N1)C(N)=O		Activity (SU.86.86 [3]): >30%
Cc1cc(O)c2c(c1)C(=O)c1c(c(O)cc(O)c1-c1c(O)cc(O)c3c1C(=O)c1cc(C)cc(O)c1C3=O)C2=O [SKYRIN]	>20	
Cc1cc(O)cc2c1Oc1cc(O)c(O)c(C)c1C(=O)O2		Activity (SU.86.86 [3]): >30%
COC1=CC(=O)[C@]2(C=C1OC)OC[C@H]1Oc3c4c(cc(O)c3C(=O)[C@H]12)OC(C)(C)C=C4		Activity (SU.86.86 [3]): >30%
COC1=C(Br)[C@H](O)[C@@]2(C=C1Br)CC(C(=O)NCCCCNC(=O)C1=NO[C@]3(C=C(Br)C(OC)=C(Br)[C@@H]3O)C1)=NO2 [AEROTHIONIN]	>20	
Cc1cc(O)cc2c1Oc1cc(O)cc(C)c1C(=O)O2	>20	Activity (SU.86.86 [2]): >20%
C=C1CCC[C@H]2[C@](C)(CC3=C(O)C(=O)C=C(N[C@@H](CO)C(=O)O)C3=O)[C@@H](C)CC[C@]12C		Activity (SU.86.86 [3]): >30%
O=C1CCCN2[C@@H](CC1)C[C@]13CN4CCCC/C=C\CC[C@](O)(C=C(c5nccc6c5[nH]c5c(O)cccc56)[C@@H]1CC4)[C@H]23	>20	Activity (SU.86.86 [2]): >20%
C=C1CC[C@@H]2C(C)(C)CCC[C@@]2(C)[C@@H]1CC/C(C)=C/Cn1c[n+](C)c2ncnc(NO)c21		Activity (SU.86.86 [2]): >20%
O=C1C[C@@H](c2ccccc2)Oc2cc(O)cc(O)c21 [PINOCEMBRIN]		Activity (SU.86.86 [3]): >30%
C=C1[C@@H](C)[C@H]2[C@H](Cc3ccccc3)NC(=O)[C@]23[C@H](OC(C)=O)/C=C\[C@@H](C)C[C@@H](C)C/C=C\[C@H]3[C@@H]1O		Activity (SU.86.86 [3]): >=30%
COC(C)CCOC(=O)c1cc(O)c(O)c(O)c1 (configuration not stated)		Activity (SU.86.86 [3]): >30%
CC1=CCC[C@H]2[C@](C)(CC3=CC(=O)C=CC3=O)[C@@H](C)CC[C@]12C [AVARONE]	>20	Activity (SU.86.86 [2]): >20%
CC(C)=CCc1cc(C(=O)/C=C/c2ccc(O)cc2)c(O)cc1O [BROUSSOCHALCONE B]	>20	Activity (SU.86.86 [3]): >30%
CC(=O)c1c(O)cc(O)cc1C[C@@H]1Cc2cc(O)cc(O)c2C(=O)O1		Activity (SU.86.86 [3]): >30%
CC1=C(CC/C(C)=C/CC/C(C)=C/CCC2=CC(=O)OC2O)C(C)(C)CCC1 (configuration not stated) [LUFFARIELLOLIDE]	>20	Activity (SU.86.86 [2]): >20%
C=C[C@@](C)(/C=C/c1ccc(O)cc1)CCC=C(C)C [BAKUCHIOL]	>20	
CCCCCc1cc(OC)c(OC(=O)c2c(O)cc(OC)cc2CCC)c(O)c1C(=O)O	>20	
C=CC(C)(C)[C@@]12C[C@H]3C(=O)N/C(=C/c4c[nH]cn4)C(=O)N3[C@@H]1Nc1ccccc12 [ROQUEFORTINE C]	>20	
[O-][n+]1ccc2c([nH]c3ccccc32)c1C1=C[C@@]2(O)CC/C=C\CCCCN3CC[C@@H]1[C@]1(CC/C=C\CCCCN[C@H]12)C3	>20	
O=C1C[C@H](O)[C@H]2c3ccc(O)c4c3[C@H](c3ccc(O)c1c32)[C@@H](O)CC4=O		Activity (SU.86.86 [2]): >20%

Structure (SMILES)	Activity (SU.86.86 [1]) [%]	also measured
C/C=C1\NC(=O)[C@H](Cc2ccccc2)NC(=O)[C@@H](C(C)C)NC(=O)[C@H]([C@@H](C)CC)NC(=O)[C@H](NC(=O)[C@H](NC(=O)[C@H](CCCN)NC(=O)[C@H]2CCCN2C(=O)[C@H](NC(=O)[C@@H](NC(=O)[C@H](NC(=O)[C@H](NC(=O)CCCC(C)C)C(C)C)[C@@H](C)O)C(C)C)C(C)C)[C@@H](C)CC)C(C)OC(=O)[C@H](C(C)C)NC1=O (some centres not stated)		Activity (SU.86.86 [2]): >20%
COC(=O)c1cc(O)cc(OC)c1C(=O)c1c(O)c(Cl)c(C)c(Cl)c1O [DIHYDROGEODIN]	>20	
CC(C)=CCC[C@@H](C)c1ccc(C)c(O)c1 [XANTHORRIZOL]	>20	
CCCCCC(N)=O	>20	Activity (SU.86.86 [3]): >30%
Oc1cccc2c1[nH]c1c(C3=C[C@@]4(O)CC/C=C\CCCCN5CC[C@@H]3[C@]3(C[C@@H]6/C=C\CCCCN6[C@H]34)C5)nccc12	>20	Activity (SU.86.86 [2]): >20%
CCCCCC[C@H](C)/C=C(C)/C=C/C(=O)N[C@@H]1C[C@@]2(O[C@@H]1O)[C@@H]1O[C@@H]1C(=O)[C@@H]1O[C@@H]12	>20	
COc1cc(O)c2c(c1)C(=O)c1cc(C)c(O)cc1C2=O [MACROSPORIN]	>20	
CC1=CCC[C@H]2[C@](C)(Cc3cc(O)ccc3O)[C@@H](C)CC[C@]12C [AVAROL]	>20	
CCCc1cc(OC)cc(O)c1C(=O)Oc1c(OC)cc(CCC)c(C(=O)O)c1O		Activity (SU.86.86 [2]): >20%
CC(C)=CCc1cc(-c2coc3cc(O)ccc3c2=O)ccc1O [NEOBAVAISOFLAVONE]	>20	Activity (SU.86.86 [2]): >20%
O=c1[nH]c2ccccc2c(-c2ccccc2)c1O	>20	
CC(C)=CCC/C(C)=C/CC/C(C)=C/CC/C(C)=C/CC/C(C)=C/CC/C(C)=C/Cc1cc(O)ccc1O		Activity (SU.86.86 [4]): Active; Activity (SU.86.86 [5]): Active
COc1cc(O)c2c(=O)oc3cc(O)cc(C)c3c2c1	>20	
C[C@H]1CCC/C=C\C(=O)Cc2cc(O)cc(O)c2C(=O)O1		Activity (SU.86.86 [3]): >30%
CC[C@H](C)[C@H]1C(=O)N[C@@H](Cc2ccc(OCC=C(C)C)cc2)C(=O)N(C)[C@@H](C)C(=O)O[C@@H](Cc2ccccc2)C(=O)N2CCC[C@H]2C(=O)N[C@H](C(=O)O)C(=O)N1C	>20	
CCOC(=O)c1cc(Br)c(Br)[nH]1	>20	
Oc1c(Br)cc(Br)cc1Oc1ccc(Br)cc1Br	>20	Activity (SU.86.86 [2]): >20%
COc1cc(C[C@H]2COC(=O)[C@@H]2Cc2ccc(O)c(OC)c2)ccc1O [MATAIRESINOL]	>20	
C/C=C(\C)[C@H]1[C@@H](/C=C/C=C(\C)[C@@H](O)[C@@H](C)CO)[C@@H]2C[C@@H](OC(=O)Cc3ccccc3)[C@](C)(O)C[C@H]2[C@@H]2O[C@@]21C	>20	Activity (SU.86.86 [4]): Active; Activity (SU.86.86 [5]): Active
O=c1cc(CO)occ1O [KOJIC ACID]	>20	
COC1=C(Br)[C@H](O)[C@](O)(CC#N)C=C1Br	>20	
CN1C(=O)NC(CCCNC(=O)c2cc(Br)c(Br)n2C)C1=O (configuration not stated) [MIDPACAMIDE]	>20	
COc1ccc(CC#N)c(O)c1	>20	
CC[C@H](C)C1C(=O)O[C@H](C(C)C)C(=O)N(C)[C@@H]([C@@H](C)CC)C(=O)O[C@H](C(C)C)C(=O)N(C)[C@@H](C(C)C)C(=O)O[C@H](C(C)C)C(=O)N1C (some centres not stated)	>20	
